Results as given in article PMC9492542, “Brain-restricted mTOR inhibition with binary pharmacology” (Nature, 2022).
Several values for one entry are separate records, joined by “and”; a condition that tells them apart may be missing. Identical values can stand only once. Like-named read-outs stand apart in the source and are kept apart here.

Legend:
MTORC1 = experiment: Equilibrium constants for mTORC1 binding used in the model; details: read-out: Kd4 (drug binding to MTORC1 without FKBP); estimated, affinity of the TORKi portion for MTORC1
U87MG = experiment: Orthotopic intracranial U87MG-luciferase glioblastoma xenograft
mTOR [1] = experiment: Immunoblot analysis of mTOR signalling (p-S6, p-4EBP1) in MCF7 cells, incl. screen for blocking of rapamycin/RapaLink-1
GBM43 = experiment: Orthotopic intracranial GBM43-luciferase patient-derived glioblastoma xenograft; details: GBM43-Luc
human PBMCs [2] = experiment: Proliferation of anti-CD3/anti-CD28 stimulated PBMCs (120 h); assay type: cell-based; design: PBMC cell proliferation: unit not given here
human PBMCs [3] = experiment: IL-2 secretion of stimulated PBMCs (sandwich ELISA); assay type: cell-based; design: unit not given here
mTOR [4] = experiment: mTOR signalling in mouse whole brain and skeletal muscle after single i.p. dose (immunoblot, insulin stimulated); assay type: in vivo; details: for p-4EBP1 Brain, fold relative to no insulin, normalized to GAPDH / p-4EBP1 Muscle, fold relative to no insulin, normalized to GAPDH / p-RPS6 Brain, fold relative to no insulin, normalized to GAPDH / p-RPS6 Muscle, fold relative to no insulin, normalized to GAPDH: RL1 1 mg/kg, RB 40 mg/kg, insulin 250 mU, listed as RL1
Experimental: Whole brain and skeletal muscle were analyzed by immunoblot.

476 purified kinases = 476 purified kinases (Homo sapiens, UniProt Q32MK0)
Experimental: In vitro kinase inhibition assays were performed by SelectScreen Services (Thermo Fisher Scientific) using either Z’-LYTE (mTOR, Src, Csk, EGFR, HER2 and HGK), Adapta (LRRK2) or LanthaScreen (DDR2) assay format (standardized protocols can be accessed on the SelectScreen website: https://www.thermofisher.com/us/en/home/products-and-services/services/custom-services/screening-and-profiling-services/selectscreen-profiling-service/selectscreen-kinase-profiling-service.html. When indicated, recombinant FKBP12 protein was added to the assay mixture to a final concentration of 10 µM.

[5] = U87MG-Luc, day 0, individual mice
[6] = U87MG-Luc, day 5, individual mice
[7] = U87MG-Luc, day 10, individual mice
[8] = U87MG-Luc, day 15, individual mice
[9] = U87MG-Luc, day 20, individual mice
[10] = U87MG-Luc, day 25, individual mice
[11] = 0.005081 nM RapaLink-1, +10 μM RapaBlock
[12] = 0.005081 nM RapaLink-1, No RapaBlock
[13] = 0.015242 nM RapaLink-1, +10 μM RapaBlock
[14] = 0.015242 nM RapaLink-1, No RapaBlock
[15] = 0.045725 nM RapaLink-1, +10 μM RapaBlock
[16] = 0.045725 nM RapaLink-1, No RapaBlock
[17] = 0.137174 nM RapaLink-1, +10 μM RapaBlock
[18] = 0.137174 nM RapaLink-1, No RapaBlock
[19] = 0.411523 nM RapaLink-1, +10 μM RapaBlock
[20] = 0.411523 nM RapaLink-1, No RapaBlock
[21] = 1.23457 nM RapaLink-1, +10 μM RapaBlock
[22] = 1.23457 nM RapaLink-1, No RapaBlock
[23] = 3.7037 nM RapaLink-1, +10 μM RapaBlock
[24] = 3.7037 nM RapaLink-1, No RapaBlock
[25] = 11.1111 nM RapaLink-1, +10 μM RapaBlock
[26] = 11.1111 nM RapaLink-1, No RapaBlock
[27] = 33.3333 nM RapaLink-1, +10 μM RapaBlock
[28] = 33.3333 nM RapaLink-1, No RapaBlock
[29] = 100 nM RapaLink-1, +10 μM RapaBlock
[30] = 100 nM RapaLink-1, No RapaBlock
[31] = BALB/c nu/nu mice, RapaLink-1 1 mg per kg, RapaBlock 40 mg per kg, 4 h or 24 h

476 purified kinases, sequence (Q32MK0 whole entry): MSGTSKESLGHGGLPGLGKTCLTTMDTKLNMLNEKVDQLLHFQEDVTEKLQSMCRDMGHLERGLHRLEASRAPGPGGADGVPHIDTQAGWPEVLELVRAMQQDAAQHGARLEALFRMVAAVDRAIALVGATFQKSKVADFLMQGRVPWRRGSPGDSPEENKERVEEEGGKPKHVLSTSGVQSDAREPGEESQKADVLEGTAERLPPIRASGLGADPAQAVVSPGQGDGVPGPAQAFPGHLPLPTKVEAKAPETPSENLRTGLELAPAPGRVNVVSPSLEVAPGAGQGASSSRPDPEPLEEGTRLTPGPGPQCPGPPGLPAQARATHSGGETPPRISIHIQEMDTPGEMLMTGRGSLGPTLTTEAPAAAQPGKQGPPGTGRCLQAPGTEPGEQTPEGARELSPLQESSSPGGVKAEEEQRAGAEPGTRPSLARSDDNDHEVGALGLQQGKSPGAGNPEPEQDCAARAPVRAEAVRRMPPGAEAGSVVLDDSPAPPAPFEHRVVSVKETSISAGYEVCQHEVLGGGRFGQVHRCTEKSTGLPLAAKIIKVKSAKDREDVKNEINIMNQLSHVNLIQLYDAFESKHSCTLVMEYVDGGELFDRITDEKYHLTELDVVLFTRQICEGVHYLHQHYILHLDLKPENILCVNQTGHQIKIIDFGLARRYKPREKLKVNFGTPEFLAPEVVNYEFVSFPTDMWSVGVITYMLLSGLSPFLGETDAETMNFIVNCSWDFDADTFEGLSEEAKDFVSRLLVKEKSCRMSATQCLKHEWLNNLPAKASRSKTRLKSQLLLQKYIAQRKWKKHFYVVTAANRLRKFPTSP

Structure (SMILES): CO[C@H]1C[C@@H]2CC[C@@H](C)[C@@](O)(O2)C(=O)C(=O)N2CCCC[C@H]2C(=O)O[C@H]([C@H](C)C[C@@H]2CC[C@@H](OCCOCc3cn(CCOCCOCCOCCOCCOCCOCCOCCOCCC(=O)NCCCCn4nc(-c5ccc6oc(N)nc6c5)c5c(N)ncnc54)nn3)[C@H](OC)C2)CC(=O)[C@H](C)/C=C(\C)[C@@H](O)[C@@H](OC)C(=O)[C@H](C)C[C@H](C)/C=C/C=C/C=C/1C [RapaLink-1]
- Kd (MTORC1): 5 nM
- tumour growth and survival (U87MG; RapaLink-1 1 mg per kg, RapaBlock 40 mg per kg, i.p. every 5 days): significantly suppressed tumour growth and improved survival
- Mouse weight (U87MG; [5]): 25.3 g and 21.6 g and 19 g and 22.3 g and 21.7 g and 23.2 g
- Tumor size (measured by bioluminescence) (U87MG; [5]): 4240000 and 1010000 and 1910000 and 5080000 and 3680000 and 9440000
- Mouse weight (U87MG; [6]): 26.2 g and 22.3 g and 20.2 g and 23.3 g and 23.2 g (2×)
- Tumor size (measured by bioluminescence) (U87MG; [6]): 1460000 and 640000 and 1800000 and 5970000 and 155000 and 7230000
- Mouse weight (U87MG; [7]): 26.1 g and 22.4 g (2×) and 20.7 g and 22.7 g and 21.8 g
- Tumor size (measured by bioluminescence) (U87MG; [7]): 3420000 and 1030000 and 12000000 and 3100000 and 5850000 and 4400000
- Mouse weight (U87MG; [8]): 25.2 g and 22 g and 20.3 g and 23.7 g and 23.4 g and 21.9 g
- Tumor size (measured by bioluminescence) (U87MG; [8]): 11100000 and 3790000 and 12200000 and 19000000 and 408000 and 7800000
- Mouse weight (U87MG; [9]): 26.4 g and 22.6 g and 21.3 g and 25.8 g and 23.9 g and 23.3 g
- Tumor size (measured by bioluminescence) (U87MG; [9]): 53600000 and 17300000 and 32400000 and 53200000 and 63600000 and 11500000
- Mouse weight (U87MG; [10]): 22.4 g and 22.3 g and 20.3 g and 24.8 g and 21.6 g and 23.4 g
- Tumor size (measured by bioluminescence) (U87MG; [10]): 605000000 and 412000000 and 640000000 and 201000000 and 1240000000 and 128000000
- Tumor size (measured by bioluminescence) (U87MG; U87MG-Luc, day 30, individual mice): 1100000000 and 366000000 and 814000000 and 167000000
- Mouse survival (U87MG; U87MG-Luc, individual mice, listed as RL-1): 32 days and 30 days and 41 days and 40 days
- phospho-S6 (S240/244) and phospho-4EBP (T37/46) levels (mTOR [1]; MCF7, 10 nM RapaLink-1): almost undetectable levels
- phospho-S6 (S240/244) and phospho-4EBP (T37/46) levels (mTOR [1]; MCF7, 10 nM RapaLink-1 + 10 µM FK506): showed no effect on either marker
- Mouse weight (GBM43; day 0, individual mice): 23.5 g and 21.9 g and 22.3 g and 22.1 g and 19.3 g and 21.6 g
- Tumor size (measured by bioluminescence) (GBM43; day 0, individual mice): 9520000 and 3020000 and 1670000 and 519000 and 248000 and 80200
- Mouse weight (GBM43; day 4, individual mice): 22.9 g and 20.8 g and 22.2 g (2×) and 23.1 g and 20.1 g
- Tumor size (measured by bioluminescence) (GBM43; day 4, individual mice): 1310000 and 940000 and 1040000 and 482000 and 175000 and 141000
- Mouse weight (GBM43; day 7, individual mice): 22.7 g and 19.8 g and 21.2 g and 20.8 g and 19.6 g and 22.9 g
- Tumor size (measured by bioluminescence) (GBM43; day 7, individual mice): 121000000 and 131000000 and 102000000 and 25200000 and 4850000
- Mouse weight (GBM43; day 10, individual mice): 20.5 g and 20.2 g and 21.6 g and 20.6 g and 19.4 g and 22 g
- Tumor size (measured by bioluminescence) (GBM43; day 10, individual mice): 686000000 and 671000000 and 515000000 and 1100000000 and 3050000000 and 2140000
- Mouse survival (GBM43; individual mice, listed as RL-1): 17 days and 18 days and 19 days
- PBMC cell proliferation (human PBMCs [2]; [11]): 104.4 and 111.7 and 94.4
- PBMC cell proliferation (human PBMCs [2]; [12]): 115.8 and 102.5 and 98.3
- PBMC cell proliferation (human PBMCs [2]; [13]): 110 and 113.9 and 99.3
- PBMC cell proliferation (human PBMCs [2]; [14]): 121.8 and 109.1 and 110.9
- PBMC cell proliferation (human PBMCs [2]; [15]): 112.2 and 110.5 and 104.3
- PBMC cell proliferation (human PBMCs [2]; [16]): 121.5 and 108 and 104.7
- PBMC cell proliferation (human PBMCs [2]; [17]): 110.3 and 116.4 and 104.2
- PBMC cell proliferation (human PBMCs [2]; [18]): 113.1 and 112.8 and 102.9
- PBMC cell proliferation (human PBMCs [2]; [19]): 114.7 and 112.8 and 107.7
- PBMC cell proliferation (human PBMCs [2]; [20]): 98.2 and 98.7 and 94.9
- PBMC cell proliferation (human PBMCs [2]; [21]): 109.6 and 111.8 and 107
- PBMC cell proliferation (human PBMCs [2]; [22]): 44.3 and 45.5 and 45.3
- PBMC cell proliferation (human PBMCs [2]; [23]): 105.8 and 104.9 and 94.5
- PBMC cell proliferation (human PBMCs [2]; [24]): 29.2 and 28.4 and 25.5
- PBMC cell proliferation (human PBMCs [2]; [25]): 84.3 and 94.6 and 81
- PBMC cell proliferation (human PBMCs [2]; [26]): 13.5 and 22.4 and 19.1
- PBMC cell proliferation (human PBMCs [2]; [27]): 64.4 and 70.2 and 62.9
- PBMC cell proliferation (human PBMCs [2]; [28]): 20.6 and 20 and 17.2
- PBMC cell proliferation (human PBMCs [2]; [29]): 39.8 and 43.7 and 38.7
- PBMC cell proliferation (human PBMCs [2]; [30]): 17.8 and 16.4 and 15.6
- inhibition of PBMC proliferation (human PBMCs [2]; 5 days): potently inhibited proliferation of PBMCs at nanomolar concentrations
- IL-2 secretion (human PBMCs [3]; [11]): 4596.86 and 6574.88 and 5859.62
- IL-2 secretion (human PBMCs [3]; [12]): 6581.16 and 6332.27 and 5840.51
- IL-2 secretion (human PBMCs [3]; [13]): 4621.98 and 5392.72 and 5694.48
- IL-2 secretion (human PBMCs [3]; [14]): 6342.48 and 6161.37 and 6860.66
- IL-2 secretion (human PBMCs [3]; [15]): 5493.48 and 5276.26 and 6056.43
- IL-2 secretion (human PBMCs [3]; [16]): 6261.35 and 6059.04 and 6285.42
- IL-2 secretion (human PBMCs [3]; [17]): 4501.07 and 6329.65 and 6310.02
- IL-2 secretion (human PBMCs [3]; [18]): 6367.08 and 6367.6 and 6351.64
- IL-2 secretion (human PBMCs [3]; [19]): 5797.33 and 5310.02 and 6522.53
- IL-2 secretion (human PBMCs [3]; [20]): 6337.77 and 6266.32 and 6532.48
- IL-2 secretion (human PBMCs [3]; [21]): 5361.84 and 6623.29 and 6201.15
- IL-2 secretion (human PBMCs [3]; [22]): 2712.8 and 2327.56 and 3337.76
- IL-2 secretion (human PBMCs [3]; [23]): 5860.66 and 6735.83 and 6648.15
- IL-2 secretion (human PBMCs [3]; [24]): 362.628 and 408.689 and 558.388
- IL-2 secretion (human PBMCs [3]; [25]): 4848.63 and 4895.73 and 6502.64
- IL-2 secretion (human PBMCs [3]; [26]): 251.4 and 437.215 and 324.156
- IL-2 secretion (human PBMCs [3]; [27]): 4350.33 and 5093.33 and 4877.15
- IL-2 secretion (human PBMCs [3]; [28]): 275.478 and 292.227 and 264.486
- IL-2 secretion (human PBMCs [3]; [29]): 2837.9 and 2542.68 and 2708.61
- IL-2 secretion (human PBMCs [3]; [30]): 278.356 and 273.907 and 280.974
- p-4EBP1 Brain, fold relative to no insulin, normalized to GAPDH (mTOR [4]; 4h): 1.26 and 1.03 and 0.71
- p-4EBP1 Muscle, fold relative to no insulin, normalized to GAPDH (mTOR [4]; 4h): 1 and 1.04 and 1.12
- p-RPS6 Brain, fold relative to no insulin, normalized to GAPDH (mTOR [4]; 4h): 1.23 and 1.15 and 1.11
- p-RPS6 Muscle, fold relative to no insulin, normalized to GAPDH (mTOR [4]; 4h): 0.9 and 1.3 and 1.14
- p-4EBP1 Brain, fold relative to no insulin, normalized to GAPDH (mTOR [4]; 24h): 0.98 and 0.96 and 0.78
- p-4EBP1 Muscle, fold relative to no insulin, normalized to GAPDH (mTOR [4]; 24h): 1.18 and 1.08 and 1.1
- p-RPS6 Brain, fold relative to no insulin, normalized to GAPDH (mTOR [4]; 24h): 0.89 and 0.78 and 1.52
- p-RPS6 Muscle, fold relative to no insulin, normalized to GAPDH (mTOR [4]; 24h): 1.11 and 1.39
- mTOR activity in brain (p-S6, p-4EBP1) (mTOR [4]; [31]): potently inhibited mTOR signalling in both skeletal muscle and brain tissues
- mTOR activity in skeletal muscle (p-S6, p-4EBP1) (mTOR [4]; [31]): potently inhibited mTOR signalling in both skeletal muscle and brain tissues

Structure (SMILES): Cc1nc(Nc2ncc(C(=O)Nc3c(C)cccc3Cl)s2)cc(N2CCN(CCO)CC2)n1 [Dasatinib]
- MLCK (MLCK2) (LanthaScreen Binding) (476 purified kinases; 10 nM compound): -3
- MLCK (MLCK2) (LanthaScreen Binding) (476 purified kinases; 10 nM compound + 10 µM FKBP12): 3
